Reference: article PMC9732521, “Molecular mechanism of GylR-mediated regulation of glycerol metabolism in Streptomyces clavuligerus NRRL 3585” (Frontiers in Microbiology, 2022)

Tests used:
GylR = molecular target: T1, GylR (Streptomyces clavuligerus, UniProt E2PWC0); assay: EMSA, dissociation of GylR from DNA probe BS2; assay type: binding; conditions: effector (inducer), 50 mM HEPES pH 7.5, 5 mM MgCl2, 25 °C
T1 construct: gene SCLAV_0876; coding region of gylR in pET-30a (NdeI/XhoI), C-terminal His6 tag, E. coli Rosetta (DE3), Ni-NTA; dimer by SEC

[1] = molecular target: GylR (IclR family transcriptional regulator) of Streptomyces clavuligerus NRRL 3585, C-terminal His6-tagged (Streptomyces clavuligerus NRRL 3585); assay: SEC; TSKgel G3000 SWxl column (7.8 x 300 mm) on HPLC, 0.1 M Na2SO4 (pH 6.7), 0.5 ml/min; bovine serum albumin, ovalbumin and AlpJ as molecular weight standards

T1 sequence (E2PWC0 entry or part of it): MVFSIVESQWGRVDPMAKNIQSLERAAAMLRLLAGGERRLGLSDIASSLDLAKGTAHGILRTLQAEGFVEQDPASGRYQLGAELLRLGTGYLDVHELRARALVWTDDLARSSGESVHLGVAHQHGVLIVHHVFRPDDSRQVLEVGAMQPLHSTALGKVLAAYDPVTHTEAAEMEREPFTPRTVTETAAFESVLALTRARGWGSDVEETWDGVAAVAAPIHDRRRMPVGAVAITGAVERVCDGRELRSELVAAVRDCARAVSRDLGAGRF

Compound	EMSA, dissociation of GylR from DNA probe BS2 (GylR)	stoichiometry N [1]
O=C(CO)COP(=O)(O)O [DHAP, dihydroxyacetone phosphate]	both G3P and DHAP were capable of inducing the dissociation of GylR from BS2	–
GylR (IclR family transcriptional regulator) of Streptomyces clavuligerus NRRL 3585, C-terminal His6-tagged (natural protein)	–	2
O=P(O)(O)OC[C@H](O)CO [G3P, glycerol-3-phosphate]	both G3P and DHAP were capable of inducing the dissociation of GylR from BS2	–
